Test results from patent US20250230147A1, “LACTAMS AS CBL-B INHIBITORS” (Genentech, Inc., priority 2021, published 2025).
Counter-ions that a name gives are not always drawn.

Assays:
Cbl-b = Cbl-b (Homo sapiens (Human), UniProt Q13191); test: Cbl-b LCK Ub TR-FRET assay (Cbl-b Lck HTRF); format: biochemical
Protocol: Compounds were 3-fold serially diluted in DMSO in a 384-well polypropylene plate (#P-05525-BC; Labcyte) to generate a source plate with 10 concentrations of each compound, top concentration=2 mM. 80 nL of DMSO or compounds were transferred to each well of a black 384-well ProxiPlate (#6008260; PerkinElmer) using a Labcyte Echo. 1×assay buffer (50 mM HEPES pH7.0, 100 mM NaCl, 0.01% BSA, 0.01% Triton-X100, 1 mM DTT), 2×enzyme solution (16 nM Biotin-Cbl-b or 12 nM Biotin-c-Cbl in 1× assay buffer), 2×kinase mixture (120 nM His-LCK, 1 mM ATP, 10 mM MgCl2 in assay buffer) and 2.33×detection mixture (4.66×solution 1: 163 nM Anti-HA-D2 antibody (#610HADAB; PerkinElmer), 27.96 nM Streptavidin-EU (#AD0062; PerkinElmer), 1.398 mM EDTA in 1×assay buffer+4.66×solution 2: 2.796 μM UBE2D2/Methylated-HA-Ubiquitin thioester adduct (BostonBiochem) in 1×assay buffer) were prepared. 4 μL of 2× enzyme solution was added to each well containing compound, briefly centrifuged to mix, and incubated for 60 min at room temperature. 4 μL of 2× kinase mixture was added, briefly centrifuged to mix, and incubated for 90 min. at room temperature. 6 μL of detection mixture was added to all wells and briefly centrifuged before incubating for 20 min at room temperature. Plates were read for TR-FRET using an Envision at excitation 340 nm, emission at 615 and 665 nm, 4 flashes per well. IC50 was generated using no LCK as the low control and DMSO as the high control.
Cbl-b Lck HTRF data in Table 7 is measured according to Example 76 herein; C-cbl Lck HTRF data is measured according to Example 76 herein.

c-Cbl = c-Cbl (Homo sapiens (Human), UniProt P22681); test: C-Cbl LCK Ub TR-FRET assay (c-cbl Lck HTRF); format: biochemical; details: for (fold-selectivity): C-cbl Lck HTRF IC50 relative to Cbl-b Lck HTRF IC50
Protocol: 6 μL of detection mixture was added to all wells and briefly centrifuged before incubating for 20 min at room temperature. […] IC50 was generated using no LCK as the low control and DMSO as the high control.

Chain of Cbl-b (Q13191 40-426): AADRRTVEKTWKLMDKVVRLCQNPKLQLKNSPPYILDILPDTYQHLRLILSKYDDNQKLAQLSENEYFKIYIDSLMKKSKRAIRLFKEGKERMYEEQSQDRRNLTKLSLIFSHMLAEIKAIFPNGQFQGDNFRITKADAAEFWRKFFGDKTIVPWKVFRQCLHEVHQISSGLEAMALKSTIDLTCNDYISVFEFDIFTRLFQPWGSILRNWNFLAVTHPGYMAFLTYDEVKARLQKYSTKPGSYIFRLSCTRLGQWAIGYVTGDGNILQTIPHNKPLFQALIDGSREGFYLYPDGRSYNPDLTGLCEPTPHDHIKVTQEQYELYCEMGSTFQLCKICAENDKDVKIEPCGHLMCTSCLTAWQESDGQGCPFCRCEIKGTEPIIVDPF
Chain of c-Cbl (P22681 47-435): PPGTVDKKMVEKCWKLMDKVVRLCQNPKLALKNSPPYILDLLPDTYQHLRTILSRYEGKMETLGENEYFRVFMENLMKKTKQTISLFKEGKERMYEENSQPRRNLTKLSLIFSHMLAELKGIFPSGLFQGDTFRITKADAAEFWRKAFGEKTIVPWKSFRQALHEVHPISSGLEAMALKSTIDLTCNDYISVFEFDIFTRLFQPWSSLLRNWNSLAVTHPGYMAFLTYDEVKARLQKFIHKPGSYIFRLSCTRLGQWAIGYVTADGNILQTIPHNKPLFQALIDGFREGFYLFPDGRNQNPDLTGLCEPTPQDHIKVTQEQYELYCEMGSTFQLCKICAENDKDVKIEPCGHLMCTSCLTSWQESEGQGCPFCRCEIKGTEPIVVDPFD

C[C@H]1CN(Cc2cc3c(c(C(F)(F)F)c2)CN(c2cccc(C4(Cc5nncn5C)CC(F)(F)C4)c2)C3=O)CCN1 [Compound 425, (S)-2-(3-(3,3-difluoro-1-((4-methyl-4H-1,2,4-triazol-3-yl)methyl)cyclobutyl)phenyl)-6-((3-methylpiperazin-1-yl)methyl)-4-(trifluoromethyl)isoindolin-1-one]
IC50 (Cbl-b): 32 nM
IC50 (c-Cbl): 22 nM
(fold-selectivity) (c-Cbl): (0.68x)

CO[C@@H]1CCN(Cc2cc3c(c(C(F)(F)F)c2)CN(c2cccc(C4([C@H](F)c5nncn5C)COC4)c2)C3=O)C1 [Compound 48, 2-(3-(3-((S)-fluoro(4-methyl-4H-1,2,4-triazol-3-yl)methyl)oxetan-3-yl)phenyl)-6-(((R)-3-methoxypyrrolidin-1-yl)methyl)-4-(trifluoromethyl)isoindolin-1-one]
IC50 (Cbl-b): 320 nM
IC50 (c-Cbl): 780 nM
(fold-selectivity) (c-Cbl): 2.4x

CC[C@H]1CN(Cc2cc3c(c(C(F)(F)F)c2)CN(c2cccc(C4(Cc5nncn5C)CC(F)(F)C4)c2)C3=O)CCN1 [Compound 427, (S)-2-(3-(3,3-difluoro-1-((4-methyl-4H-1,2,4-triazol-3-yl)methyl)cyclobutyl)phenyl)-6-((3-ethylpiperazin-1-yl)methyl)-4-(trifluoromethyl)isoindolin-1-one]
IC50 (Cbl-b): 21 nM
IC50 (c-Cbl): 16 nM
(fold-selectivity) (c-Cbl): (0.76x)

CC(C)[C@@H]1CN(Cc2cc3c(c(C(F)(F)F)c2)CN(c2cccc(C4(Cc5nncn5C)CC(F)(F)C4)c2)C3=O)CCN1 [Compound 428, (R)-2-(3-(3,3-difluoro-1-((4-methyl-4H-1,2,4-triazol-3-yl)methyl)cyclobutyl)phenyl)-6-((3-isopropylpiperazin-1-yl)methyl)-4-(trifluoromethyl)isoindolin-1-one]
IC50 (Cbl-b): 14 nM
IC50 (c-Cbl): 10 nM
(fold-selectivity) (c-Cbl): (0.74x)

CN1CC(Cc2cc3c(c(C(F)(F)F)c2)CN(c2cccc(C4(Cc5nncn5C)CC(F)(F)C4)c2)C3=O)C1 [Compound 442, 2-(3-(3,3-difluoro-1-((4-methyl-4H-1,2,4-triazol-3-yl)methyl)cyclobutyl)phenyl)-6-((1-methylazetidin-3-yl)methyl)-4-(trifluoromethyl)isoindolin-1-one formate]
IC50 (Cbl-b): 96 nM
IC50 (c-Cbl): 64 nM

CN(C)Cc1cccc(CNc2cc(C3(Cc4nncn4C)CCC3)cc(N3Cc4c(cc(CNC5(C)CCC5)cc4C(F)(F)F)C3=O)n2)c1 [Compound 318, 2-(6-((3-((dimethylamino)methyl)benzyl)amino)-4-(1-((4-methyl-4H-1,2,4-triazol-3-yl)methyl)cyclobutyl)pyridin-2-yl)-6-(((1-methylcyclobutyl)amino)methyl)-4-(trifluoromethyl)isoindolin-1-one]
IC50 (Cbl-b): 130 nM
IC50 (c-Cbl): 140 nM
(fold-selectivity) (c-Cbl): (1.1x)

Cc1cn[nH]c1C(F)C1(c2cccc(N3Cc4c(cc(CN5CCN(C)C[C@@H]5C(C)C)cc4C(F)(F)F)C3=O)c2)COC1 (stereo partly drawn) [Compound 237, 2-(3-(3-(fluoro(4-methyl-1H-pyrazol-5-yl)methyl)oxetan-3-yl)-phenyl)-6-(((S)-2-isopropyl-4-methylpiperazin-1-yl)methyl)-4-(trifluoromethyl)isoindolin-1-one]
IC50 (Cbl-b): 100 nM
IC50 (c-Cbl): 180 nM
(fold-selectivity) (c-Cbl): (1.8x)

Cn1cnnc1CC1(c2cc(NCC3CCS(=O)(=O)CC3)nc(N3Cc4c(cc(CNC5(C)CCC5)cc4C(F)(F)F)C3=O)c2)CCC1 [Compound 315, 2-(6-(((1,1-dioxidotetrahydro-2H-thiopyran-4-yl)methyl)amino)-4-(1-((4-methyl-4H-1,2,4-triazol-3-yl)methyl)cyclobutyl)pyridin-2-yl)-6-(((1-methylcyclobutyl)amino)methyl)-4-(trifluoromethyl)isoindolin-1-one]
IC50 (Cbl-b): 570 nM
IC50 (c-Cbl): 480 nM
(fold-selectivity) (c-Cbl): (0.84x)

Cn1cnnc1[C@@H](F)C1(c2cccc(N3Cc4c(cc(CN5CC(C)(CF)C5)cc4C(F)(F)F)C3=O)c2)COC1 [Compound 77, (S)-2-(3-(3-(fluoro(4-methyl-4H-1,2,4-triazol-3-yl)methyl)oxetan-3-yl)phenyl)-6-((3-(fluoromethyl)-3-methylazetidin-1-yl)methyl)-4-(trifluoromethyl)isoindolin-1-one]
IC50 (Cbl-b): 210 nM
IC50 (c-Cbl): 370 nM
(fold-selectivity) (c-Cbl): 1.8x

COC1(C)CN(Cc2cc3c(c(C(F)(F)F)c2)CN(c2cccc(C4([C@H](F)c5nncn5C)COC4)c2)C3=O)C1 [Compound 180, (S)-2-(3-(3-(fluoro(4-methyl-4H-1,2,4-triazol-3-yl)methyl)oxetan-3-yl)phenyl)-6-((3-methoxy-3-methylazetidin-1-yl)methyl)-4-(trifluoromethyl)isoindolin-1-one]
IC50 (Cbl-b): 220 nM
IC50 (c-Cbl): 430 nM
(fold-selectivity) (c-Cbl): 1.9x

Cn1cnnc1CC1(c2cccc(N3Cc4c(cc(C5CCN5)cc4C(F)(F)F)C3=O)c2)COC1 (stereo not drawn) [Compound 13, 6-(azetidin-2-yl)-2-(3-(3-((4-methyl-4H-1,2,4-triazol-3-yl)methyl)oxetan-3-yl)phenyl)-4-(trifluoromethyl)isoindolin-1-one formate]
IC50 (Cbl-b): 320 nM
IC50 (c-Cbl): 540 nM

Cn1cnnc1C(F)(F)C1(c2cccc(N3Cc4c(cc(CN5CC(C)(O)C5)cc4C(F)(F)F)C3=O)c2)CC(F)(F)C1 [Compound 383, 2-(3-(1-(difluoro(4-methyl-4H-1,2,4-triazol-3-yl)methyl)-3,3-difluorocyclobutyl)phenyl)-6-((3-hydroxy-3-methylazetidin-1-yl)methyl)-4-(trifluoromethyl)isoindolin-1-one]
IC50 (Cbl-b): 490 nM
IC50 (c-Cbl): 380 nM
(fold-selectivity) (c-Cbl): (0.77x)

CC(C)[C@@H]1CN(Cc2cc3c(c(C(F)(F)F)c2)CN(c2cccc(C4([C@@H](F)c5nncn5C)COC4)c2)C3=O)CCN1C [Compound 218, 2-(3-(3-((R)-fluoro(4-methyl-4H-1,2,4-triazol-3-yl)methyl)oxetan-3-yl)phenyl)-6-(((R)-3-isopropyl-4-methylpiperazin-1-yl)methyl)-4-(trifluoromethyl)isoindolin-1-one]
IC50 (Cbl-b): 22 nM
IC50 (c-Cbl): 29 nM
(fold-selectivity) (c-Cbl): 1.3x

Cn1cnnc1[C@@H](F)C1(c2cccc(N3Cc4c(cc(CN5CC(C)(O)C5)cc4C(F)(F)F)C3=O)c2)CC(F)(F)C1 [Compound 52, (S)-2-(3-(3,3-difluoro-1-(fluoro(4-methyl-4H-1,2,4-triazol-3-yl)methyl)cyclobutyl)-phenyl)-6-((3-hydroxy-3-methylazetidin-1-yl)methyl)-4-(trifluoromethyl)isoindolin-1-one]
IC50 (Cbl-b): 62 nM
IC50 (c-Cbl): 130 nM
(fold-selectivity) (c-Cbl): 2.1x

CN(C)C(=O)CNc1cc(C2(Cc3nncn3C)CCC2)cc(N2Cc3c(cc(CNC4(C)CCC4)cc3C(F)(F)F)C2=O)n1 [Compound 311, N,N-dimethyl-2-((4-(1-((4-methyl-4H-1,2,4-triazol-3-yl)methyl)cyclobutyl)-6-(6-(((1-methylcyclobutyl)amino)methyl)-1-oxo-4-(trifluoromethyl)isoindolin-2-yl)pyridin-2-yl)amino)acetamide formate]
IC50 (Cbl-b): 110 nM
IC50 (c-Cbl): 140 nM

CC(C)NCc1cc2c(c(C(F)(F)F)c1)CN(c1cccc(C3([C@H](F)c4nncn4C)CC(F)(F)C3)c1)C2=O [Compound 418, (S)-2-(3-(3,3-difluoro-1-(fluoro(4-methyl-4H-1,2,4-triazol-3-yl)methyl)cyclobutyl)phenyl)-6-((isopropylamino)methyl)-4-(trifluoromethyl)isoindolin-1-one]
IC50 (Cbl-b): 32 nM
IC50 (c-Cbl): 37 nM
(fold-selectivity) (c-Cbl): (1.2x)

Cn1cnnc1CC1(c2cc(NCCc3c[nH]c4ccccc34)nc(N3Cc4c(cc(CNC5(C)CCC5)cc4C(F)(F)F)C3=O)c2)CCC1 [Compound 316, 2-(6-((2-(1H-indol-3-yl)ethyl)amino)-4-(1-((4-methyl-4H-1,2,4-triazol-3-yl)methyl)cyclobutyl)pyridin-2-yl)-6-(((1-methylcyclobutyl)amino)methyl)-4-(trifluoromethyl)isoindolin-1-one]
IC50 (Cbl-b): 16 nM
IC50 (c-Cbl): 20 nM
(fold-selectivity) (c-Cbl): (1.2x)

Cn1cnnc1CC1(c2cccc(N3Cc4c(cc(C5CCNC5)cc4C(F)(F)F)C3=O)c2)COC1.O=CO (racemic) [Compound 50, (±)-2-(3-(3-((4-methyl-4H-1,2,4-triazol-3-yl)methyl)oxetan-3-yl)phenyl)-6-(pyrrolidin-3-yl)-4-(trifluoromethyl)isoindolin-1-one formate]
IC50 (Cbl-b): 54 nM
IC50 (c-Cbl): 90 nM
(fold-selectivity) (c-Cbl): 1.7x
